Assay results as given in BindingDB's records for patent US20250099442 (Prothena Biosciences, 2025).

What follows are molecules tested against Dual specificity tyrosine-phosphorylation-regulated kinase 1A (Homo sapiens, UniProt Q13627) (assay: DYRK1A Inhibition Assay).
Method: Assay Procedure1. Add 5 μL enzyme & substrate mixture to each well in Column 2-23 and A24-H24 wells of the 384-well assay plate;2. Add 5 μL 0% Phosphorylation control to A1-H1 and I24-P24 wells of the assay plate;3. Add 5 μL 100% Phosphorylation control to I1-P1 wells of the assay plate;4. Spin the assay plate (1000 rpm, 1 minute @23° C.);5. Incubate enzyme with compounds for 15 minutes at 23° C.;6. Add 5 μL ATP solution to each well of the assay plate;7. Spin the plate (1000 rpm, 1 minute @23° C.);8. Incubate the assay plate for 90 minutes at 23° C.;9. Add 10 μL Development reagent A to each well of the assay plate;10. Centrifuge the plate at 1000 rpm about 15 seconds and seal a film over assay plate. Incubate the assay plate for 30 minutes at 23° C.11. Read assay plates on Envision

Row | Compound | IC50 [nM]
1 | CN1CCC(C#Cc2cc(-c3cn(C4CCOCC4)c4cnccc34)ccn2)CC1 [US20250099442, Compound I.91] | < 10
2 | C(#CC1CCOCC1)c1cc(-c2cn(C3CCOCC3)c3cnccc23)ccn1 [US20250099442, Compound I.92] | < 10
3 | OC1(C#Cc2ccc3c(-c4ccncc4)c[nH]c3n2)CCNCC1 [US20250099442, Compound I.95] | 100 to 1000
4 | CC(C)CN1CCC(O)(C#Cc2ccc3c(-c4ccncc4)c[nH]c3n2)CC1 [US20250099442, Compound I.96] | 100 to 1000
5 | CC(C)CN1CCC(C#Cc2cc(-c3cn(C4CCOCC4)c4cnccc34)ccn2)CC1 [US20250099442, Compound I.100] | 10 to 100
6 | CCCOc1cc(COC2CCN(C)CC2)nc2[nH]cc(C(F)(F)F)c12 [US20250099442, Compound II.7] | < 500

More lines, now with the values ahead:

Row | IC50 [nM] | Compound
7 | 10 to 100 | CCN1CCC(C(=O)Nc2cc(-c3ccc4ncn(C(F)F)c4c3)ccn2)CC1 [US20250099442, Compound I.93]
8 | > 1000 | CCN1CCC(C(=O)Nc2cc(-c3ccc4c(c3)ncn4C(F)F)ccn2)CC1 [US20250099442, Compound I.94]
9 | 10 to 100 | CC(C)CN1CCC(C#Cc2nc3ccc(-c4ccnc(N)c4)nc3n2C2CC2)CC1 [US20250099442, Compound I.99]
10 | 10 to 100 | CN1CCC(C(=O)Nc2ncc(-c3ccc4ncn(C)c4c3)s2)CC1 [US20250099442, Compound I.102]
11 | < 500 | CC(=O)Nc1ccc2cnc(NC(=O)C3CCN(C)CC3)cc2c1 [US20250099442, Compound II.22]
